Assay [1] addresses Prothrombin (Homo sapiens) (UniProt P00734). Put plainly: Inhibition of thrombin at 100 ug/ml.
The next assay addresses T1, Papain (Carica papaya) (UniProt P00784).
T1 sequence (whole entry): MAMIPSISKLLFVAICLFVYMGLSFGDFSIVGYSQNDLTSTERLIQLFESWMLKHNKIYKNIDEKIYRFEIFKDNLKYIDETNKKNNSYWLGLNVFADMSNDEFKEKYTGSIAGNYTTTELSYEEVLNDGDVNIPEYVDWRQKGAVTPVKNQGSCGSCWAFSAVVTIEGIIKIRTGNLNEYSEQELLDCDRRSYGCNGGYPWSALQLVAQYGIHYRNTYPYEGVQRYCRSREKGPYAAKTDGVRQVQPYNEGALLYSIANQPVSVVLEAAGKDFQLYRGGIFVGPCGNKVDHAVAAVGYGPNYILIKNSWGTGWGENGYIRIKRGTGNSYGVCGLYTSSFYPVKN
Put plainly: Inhibition of papaya papain at 100 ug/ml.

A short description of assay [2]: Inhibition of trypsin at 100 ug/ml.
A short description of assay [3]: Inhibition of chymotrypsin.
A short description of assay [4]: Inhibition of elastase.
Assay [5] concerns the target Plasminogen (Homo sapiens) (UniProt P00747). Put plainly: Inhibition of plasmin at 100 ug/ml.

Values after ≈ are worked out from the molar mass of the structure shown. Active and inactive are the calls of the source. No cut-off for these calls is given here.

Sequence of Plasminogen (Homo sapiens) (P00747 97-580 limits assumed): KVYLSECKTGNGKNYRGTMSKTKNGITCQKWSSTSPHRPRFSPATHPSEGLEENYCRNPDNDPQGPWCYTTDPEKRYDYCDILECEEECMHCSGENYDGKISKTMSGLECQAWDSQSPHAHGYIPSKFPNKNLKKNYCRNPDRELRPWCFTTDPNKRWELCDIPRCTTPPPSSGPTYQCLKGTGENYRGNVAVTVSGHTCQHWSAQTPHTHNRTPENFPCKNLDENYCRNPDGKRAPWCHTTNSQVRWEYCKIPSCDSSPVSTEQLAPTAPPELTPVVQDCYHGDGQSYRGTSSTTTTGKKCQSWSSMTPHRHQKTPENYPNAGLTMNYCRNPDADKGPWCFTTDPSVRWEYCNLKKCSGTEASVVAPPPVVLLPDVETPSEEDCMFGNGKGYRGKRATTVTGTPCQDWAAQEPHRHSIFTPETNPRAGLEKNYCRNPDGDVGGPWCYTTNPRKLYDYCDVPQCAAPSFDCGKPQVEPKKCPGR
Sequence of Plasminogen (Homo sapiens) (P00747 581-810 limits assumed): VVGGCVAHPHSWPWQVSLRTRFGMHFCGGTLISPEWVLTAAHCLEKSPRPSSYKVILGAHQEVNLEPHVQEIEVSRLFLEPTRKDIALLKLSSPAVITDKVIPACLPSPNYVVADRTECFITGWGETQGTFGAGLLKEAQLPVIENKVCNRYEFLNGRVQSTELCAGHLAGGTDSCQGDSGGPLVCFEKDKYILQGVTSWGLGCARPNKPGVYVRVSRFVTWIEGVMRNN

For the compound `CC[C@H](C)[C@@H]1NC(=O)[C@H](Cc2ccc(O)cc2)N(C)C(=O)[C@H]([C@@H](C)CC)N2C(=O)C(CCC2O)NC(=O)[C@H](CC(C)C)NC(=O)[C@@H]2C(OC1=O)C(C)CN2C(=O)[C@H](CCC(N)=O)NC(C)=O` (some centres not stated) [NOSTOPEPTIN B], the result (in assay [1]; on Papain (Carica papaya); in assay [2]; in assay [5]) was inactive. Moreover, the IC50 in assay [3] is 1.6 µg/mL (≈ 1.73 µM); in assay [4], 11 µg/mL (≈ 11.9 µM).

`CCCC(=O)N[C@@H](CCC(N)=O)C(=O)N1CC(C)C2OC(=O)[C@H]([C@@H](C)CC)NC(=O)[C@H](Cc3ccc(O)cc3)N(C)C(=O)[C@H]([C@@H](C)CC)N3C(=O)C(CCC3O)NC(=O)[C@H](CC(C)C)NC(=O)[C@H]21` (some centres not stated) [NOSTOPEPTIN A]: the result (in assay [1]; on Papain (Carica papaya); in assay [2]; in assay [5]) was inactive. Also, the half-maximal inhibitory concentration (IC50) in assay [3] turned out to be 1.4 µg/mL (≈ 1.47 µM); in assay [4] it was 1.3 µg/mL (≈ 1.36 µM).

In general, IC50 refers to the point on the concentration scale where inhibition reaches its midpoint.

The record behind these values is ChEMBL document CHEMBL1145717, “Nostopeptins A and B, Elastase Inhibitors from the Cyanobacterium Nostoc minutum” (J Nat Prod, 1997).
